Test results reported in patent publication US9617289B2, “RSV antiviral compounds” (JANSSEN R&D IRELAND, priority 2012, dated 2017).
Like-named read-outs stand apart in the source and are kept apart here.

Assays:
rgRSV224 virus = experiment: Antiviral activity: inhibition of rgRSV224 (GFP-expressing RSV) replication in HeLa cells; type: cell-based, respiratory syncytial virus; conditions: for EC50: human respiratory syncytial virus, HeLa, 72 h
In short: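 HeLa cells infected with GFP-expressing rgRSV224 at MOI 0.02 alongside 4-fold compound dilutions in duplicate (0.5% DMSO). Incubated 3 days at 37 °C; EC50 taken as 50% inhibition of GFP expression by laser microscopy. CC50 measured in parallel uninfected cells by ATP content after 3 days; SI = CC50/EC50.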

[1] = read-out: RSV-wt_pEC50, rgRSV224 (MOI=0.02) in HeLa cells, GFP expression three days post-virus exposure

CC(=O)NS(=O)(=O)N1CCC2(CC1)C(=O)N(Cc1cc3cc(Cl)ccc3n1CCCCF)c1cnccc12 [Compound 114, N-[(1′-{[5-Chloro-1-(4-fluorobutyl)-1H-indol-2-yl]methyl}-2′-oxo-1′,2′-dihydro-1H-spiro[piperidine-4,3′-pyrrolo[2,3-c]-pyridin]-1-yl)sulfonyl]acetamide]
EC50 (rgRSV224 virus; [1]): 0.427 nM
melting point: 236.92 °C

CC(=O)N[C@H]1C[C@]2(C1)C(=O)N(Cc1nc3cc(Cl)ccc3n1CCCC#N)c1ccccc12 [Compound 145, N-((1s,3s)-1′-((5-chloro-1-(3-cyanopropyl)-1H-benzo[d]imidazol-2-yl)methyl)-2′-oxospiro[cyclobutane-1,3′-indolin]-3-yl)acetamide]
EC50 (rgRSV224 virus; [1]): 0.302 nM
melting point: 250.91 °C

CS(=O)(=O)CCCn1c(CN2C(=O)C3(CC(O)C3)c3ccccc32)nc2cc(Cl)ccc21 [Compound 12, (3R)-1′-({5-chloro-1-[3-(methylsulfonyl)propyl]-1H-benzimidazol-2-yl}methyl)-3-hydroxyspiro[cyclobutane-1,3′-indol]-2′(1′H)-one]
pEC50 (rgRSV224 virus; rgRSV224 (MOI=0.02) in HeLa cells, GFP expression three days post-virus exposure): 9.3
melting point: 209.84 °C

CC(=O)N1CCC2(CC1)C(=O)N(Cc1nc3cc(Cl)ccc3n1CCCS(C)(=O)=O)c1ccccc12 [Compound 32, 1′-acetyl-1-({5-chloro-1-[3-(methylsulfonyl)propyl]-1H-benzimidazol-2-yl}methyl)spiro[indole-3,4′-piperidin]-2(1H)-one]
EC50 (rgRSV224 virus; read-out: pEC50, rgRSV224 (MOI=0.02) in HeLa cells, GFP expression three days post-virus exposure (converted)): 0.631 nM
melting point: 247.98 °C

CC(C)(O)C(=O)N1CC2(C1)C(=O)N(Cc1nc3cc(Cl)ccc3n1CCCCF)c1ccccc12 [Compound 183, 1′-{[5-Chloro-1-(4-fluorobutyl)-1H-benzimidazol-2-yl]methyl}-1-(2-hydroxy-2-methylpropanoyl)spiro[azetidine-3,3′-indol]-2′(1′H)-one]
EC50 (rgRSV224 virus; [1]): 0.0759 nM
melting point: 219.71 °C
